Test results taken from ChEMBL document CHEMBL5512616, “pH regulators and their inhibitors in tumor microenvironment” (Eur J Med Chem, 2024).
Values after ≈ are worked out from the molar mass of the structure shown. Each block holds one compound with its values, some of them ahead of it.

Assays:
[1] = biological target: T1, Monocarboxylate transporter 4 (Homo sapiens, UniProt O15427)
T1 sequence (O15427 whole entry): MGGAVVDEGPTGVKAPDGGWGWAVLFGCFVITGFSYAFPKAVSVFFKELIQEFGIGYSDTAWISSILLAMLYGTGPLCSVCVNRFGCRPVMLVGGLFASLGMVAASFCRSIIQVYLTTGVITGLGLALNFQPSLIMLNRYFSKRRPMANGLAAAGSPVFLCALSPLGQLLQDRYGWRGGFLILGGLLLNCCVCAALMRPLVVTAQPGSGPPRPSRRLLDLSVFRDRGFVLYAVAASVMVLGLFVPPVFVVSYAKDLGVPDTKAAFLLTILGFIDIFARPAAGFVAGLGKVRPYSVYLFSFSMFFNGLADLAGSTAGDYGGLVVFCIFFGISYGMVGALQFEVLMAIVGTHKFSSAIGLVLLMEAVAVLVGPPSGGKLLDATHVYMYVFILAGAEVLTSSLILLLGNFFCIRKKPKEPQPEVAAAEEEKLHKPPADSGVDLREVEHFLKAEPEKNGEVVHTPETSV

[2] = biological target: T2, Monocarboxylate transporter 1 (Homo sapiens, UniProt P53985)
T2 sequence (P53985 whole entry): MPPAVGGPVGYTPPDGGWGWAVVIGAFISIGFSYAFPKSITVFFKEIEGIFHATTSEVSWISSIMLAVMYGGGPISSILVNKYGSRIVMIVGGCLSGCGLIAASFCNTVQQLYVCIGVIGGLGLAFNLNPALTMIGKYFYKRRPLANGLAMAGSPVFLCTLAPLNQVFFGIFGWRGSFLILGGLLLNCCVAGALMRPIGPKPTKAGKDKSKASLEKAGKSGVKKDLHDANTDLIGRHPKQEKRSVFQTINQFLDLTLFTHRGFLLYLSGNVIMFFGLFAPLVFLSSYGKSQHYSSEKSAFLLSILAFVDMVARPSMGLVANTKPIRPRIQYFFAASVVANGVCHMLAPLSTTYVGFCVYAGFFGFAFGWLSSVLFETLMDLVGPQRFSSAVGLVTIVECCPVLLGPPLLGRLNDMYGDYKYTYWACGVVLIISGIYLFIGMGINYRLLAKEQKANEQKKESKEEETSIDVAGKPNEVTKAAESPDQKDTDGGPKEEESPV

Carbonic anhydrase 9 [3] = biological target: T3, Carbonic anhydrase 9 (Homo sapiens, UniProt Q16790)
Carbonic anhydrase 2 [4] = biological target: T4, Carbonic anhydrase 2 (Homo sapiens, UniProt P00918)
Carbonic anhydrase 9 [5] = biological target: T3, Carbonic anhydrase 9; remark: listed apart in the source
Carbonic anhydrase 2 [6] = biological target: T4, Carbonic anhydrase 2; remark: listed apart in the source
MCF7 [7] = assay: cells; details: Homo sapiens, MCF7, 96 h
MCF7 [8] = assay: cells; details: Homo sapiens, MCF7, 72 h
Carbonic anhydrase 9 [9] = biological target: T3, Carbonic anhydrase 9; remark: listed apart in the source
MCF7 [10] = assay: cells; details: Homo sapiens, MCF7, 72 h; remark: listed apart in the source
SK-MEL = assay: cells; details: Homo sapiens
KB = assay: cells; details: Homo sapiens
SK-OV-3 = assay: cells; details: Homo sapiens
BT-549 = assay: cells; details: Homo sapiens
Carbonic anhydrase 9 [11] = biological target: T3, Carbonic anhydrase 9; remark: listed apart in the source
[12] = biological target: 72 kDa type IV collagenase (Homo sapiens, UniProt P08253); assay: Inhibition of MMP2 (unknown origin)
72 kDa type IV collagenase, sequence (P08253 whole entry): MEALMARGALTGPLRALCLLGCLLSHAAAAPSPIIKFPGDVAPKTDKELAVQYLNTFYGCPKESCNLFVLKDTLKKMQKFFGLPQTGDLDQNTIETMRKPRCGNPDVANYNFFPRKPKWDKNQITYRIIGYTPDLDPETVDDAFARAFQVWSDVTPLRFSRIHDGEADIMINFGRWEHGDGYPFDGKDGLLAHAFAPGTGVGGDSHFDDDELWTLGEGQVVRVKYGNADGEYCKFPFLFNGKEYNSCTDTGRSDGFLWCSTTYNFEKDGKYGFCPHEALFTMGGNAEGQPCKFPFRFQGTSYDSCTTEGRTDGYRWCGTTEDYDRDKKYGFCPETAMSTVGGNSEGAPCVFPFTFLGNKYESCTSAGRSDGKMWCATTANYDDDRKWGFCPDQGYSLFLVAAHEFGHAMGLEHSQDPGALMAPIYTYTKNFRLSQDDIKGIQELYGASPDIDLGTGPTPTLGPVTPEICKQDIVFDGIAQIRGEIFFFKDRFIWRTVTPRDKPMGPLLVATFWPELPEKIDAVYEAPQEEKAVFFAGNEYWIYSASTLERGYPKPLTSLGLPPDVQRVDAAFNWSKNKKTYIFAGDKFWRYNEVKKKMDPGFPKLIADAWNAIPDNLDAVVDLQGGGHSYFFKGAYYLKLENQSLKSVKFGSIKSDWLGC

Carbonic anhydrase 9 [13] = biological target: T3, Carbonic anhydrase 9; remark: listed apart in the source
Carbonic anhydrase 2 [14] = biological target: T4, Carbonic anhydrase 2; remark: listed apart in the source
Carbonic anhydrase 2 [15] = biological target: T4, Carbonic anhydrase 2; remark: listed apart in the source
Carbonic anhydrase 9 [16] = biological target: T3, Carbonic anhydrase 9; remark: listed apart in the source
Carbonic anhydrase 1 = Carbonic anhydrase 1 (Homo sapiens, UniProt P00915)
Carbonic anhydrase 1, sequence (P00915 whole entry): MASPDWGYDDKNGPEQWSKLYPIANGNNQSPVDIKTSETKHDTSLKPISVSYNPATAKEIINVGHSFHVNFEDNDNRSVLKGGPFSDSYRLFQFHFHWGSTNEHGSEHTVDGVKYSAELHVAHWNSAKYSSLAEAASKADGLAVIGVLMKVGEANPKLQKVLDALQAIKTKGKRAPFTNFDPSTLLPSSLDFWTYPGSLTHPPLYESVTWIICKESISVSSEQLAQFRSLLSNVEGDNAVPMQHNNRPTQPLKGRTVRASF

Compound: CC(C)(O)[C@@H](O)COc1c2occc2cc2ccc(=O)oc12
Ki (Carbonic anhydrase 9 [3]): 27.5 nM | Ki (Carbonic anhydrase 2 [4]): > 10 µM | Ki (Carbonic anhydrase 9 [5]): 27.5 nM | Ki (Carbonic anhydrase 2 [6]): > 10 µM

Compound: C=C(C)[C@@H]1CC[C@]2(C(=O)O)CC[C@]3(C)[C@H](CC[C@@H]4[C@@]5(C)CC[C@H](O)C(C)(C)[C@@H]5CC[C@]43C)[C@@H]12 [BETULINIC ACID]
IC50 (MCF7 [7]): 14 µM | IC50 (MCF7 [10]): 16.4 µM

Compound: N[C@H](CNC(=O)P(=O)(O)O)CNS(=O)(=O)c1ccc(Oc2ccccc2)cc1
IC50 (Carbonic anhydrase 9 [11]): 6.22 µM | IC50 [12]: 15 µM

Compound: NS(=O)(=O)c1ccc(N=C2C(=O)Nc3ccccc32)cc1
Ki (Carbonic anhydrase 2 [15]): 33 nM | Ki (Carbonic anhydrase 9 [16]): 6.5 nM | IC50 (Carbonic anhydrase 1): 65 nM

The next lines start with the values.

IC50 [1]: 40 nM | IC50 [2]: 2500 nM
Compound: CCOC(=O)Oc1c(OC)cc(C(=O)O[C@@H]2C[C@@H]3CN4CCc5c([nH]c6cc(OC)ccc56)[C@H]4C[C@@H]3[C@H](C(=O)OC)[C@H]2OC)cc1OC [SYROSINGOPINE]

IC50 (MCF7 [7]): 7.02 µM | IC50 (MCF7 [8]): 11.1 µM | Ki (Carbonic anhydrase 9 [9]): 1.25 nM
Compound: C=C(C)[C@@H]1CC[C@]2(COS(N)(=O)=O)CC[C@]3(C)[C@H](CC[C@@H]4[C@@]5(C)CC[C@H](OC(C)=O)C(C)(C)[C@@H]5CC[C@]43C)[C@@H]12

IC50 (SK-MEL): 9 µg/mL (≈ 22.7 µM) | IC50 (KB): 8 µg/mL (≈ 20.2 µM) | IC50 (SK-OV-3): > 10 µg/mL | IC50 (BT-549): 9.4 µg/mL (≈ 23.7 µM)
Compound: COc1cc(/C=C/C(=O)O)ccc1OCc1cn(-c2cccc([N+](=O)[O-])c2)nn1

Ki (Carbonic anhydrase 9 [13]): 215 nM | Ki (Carbonic anhydrase 2 [14]): > 10 µM
Compound: CC(C)n1nc(C(=O)Nc2ccc3c(c2)C=CS(=O)(=O)O3)c2ccccc21
